Reference: the supplement of paper PMC10307832

Assays:
Test in all cases: relative viability (nuclei count vs DMSO), 5 days (fraction); higher = more cells survive
TPCA-1 + Dasatinib = compound: C1=CC(=CC=C1C2=CC(=C(S2)NC(=O)N)C(=O)N)F [TPCA-1] + Cc1nc(Nc2ncc(C(=O)Nc3c(C)cccc3Cl)s2)cc(N2CCN(CCO)CC2)n1 [Dasatinib] (partner 0.075 µM)
Outline: (§1)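 Medians of duplicate plates are given as relative viability. That measure is the nuclei count in treated wells divided by the count in vehicle wells. Counts were taken on 4× images of lung cancer cell lines in 1536-well plates, 5 days after pin-tool dosing the day after seeding with one drug alone or a fixed anchor-drug dose plus five library-drug doses (not always all listed) in √10 steps.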

[1] = compound: C1/C(=C\C2=CC=CS2)/C(=O)/C(=C/C3=CC=CS3)/C1 + O=C(c1cc(Cc2n[nH]c(=O)c3ccccc23)ccc1F)N1CCN(C(=O)C2CC2)CC1 [Olaparib] (partner 8 µM)
Outline: as §1

TPCA-1 + Pictilisib = compound: C1=CC(=CC=C1C2=CC(=C(S2)NC(=O)N)C(=O)N)F [TPCA-1] + CS(=O)(=O)N1CCN(Cc2cc3nc(-c4cccc5[nH]ncc45)nc(N4CCOCC4)c3s2)CC1 [Pictilisib] (partner 1 µM)
Outline: as §1

TPCA-1 + AZD7762 = compound: C1=CC(=CC=C1C2=CC(=C(S2)NC(=O)N)C(=O)N)F [TPCA-1] + NC(=O)Nc1cc(-c2cccc(F)c2)sc1C(=O)N[C@H]1CCCNC1 [AZD7762] (partner 0.2 µM)
Outline: as §1

Cell Line | relative viability (TPCA-1 + Dasatinib; first compound 0.04 µM) | relative viability (TPCA-1 + Dasatinib; first compound 0.1265 µM) | relative viability (TPCA-1 + Dasatinib; first compound 0.4 µM) | relative viability (TPCA-1 + Dasatinib; first compound 1.265 µM) | relative viability (TPCA-1 + Dasatinib; first compound 4 µM) | relative viability ([1]; first compound 0.2 µM) | relative viability ([1]; first compound 0.6325 µM) | relative viability ([1]; first compound 2 µM) | relative viability ([1]; first compound 6.325 µM) | relative viability ([1]; first compound 20 µM) | relative viability (TPCA-1 + Pictilisib; first compound 0.04 µM) | relative viability (TPCA-1 + Pictilisib; first compound 0.1265 µM) | relative viability (TPCA-1 + Pictilisib; first compound 0.4 µM) | relative viability (TPCA-1 + Pictilisib; first compound 1.265 µM) | relative viability (TPCA-1 + Pictilisib; first compound 4 µM) | relative viability (TPCA-1 + AZD7762; first compound 0.04 µM) | relative viability (TPCA-1 + AZD7762; first compound 0.1265 µM) | relative viability (TPCA-1 + AZD7762; first compound 0.4 µM) | relative viability (TPCA-1 + AZD7762; first compound 1.265 µM) | relative viability (TPCA-1 + AZD7762; first compound 4 µM)
NCI-H2087 | 1.15 | 0.658 | 0.816 | 0.745 | 0.397 | 0.708 | 0.528 | 0.699 | 0.561 | 0.594 | 1.23 | 0.785 | 0.823 | 0.626 | 0.203 | 1.24 | 1.3 | 1.34 | 1.29 | 0.758
NCI-H2126 | 0.617 | 0.531 | 0.602 | 0.549 | 0.437 | 0.951 | 0.926 | 0.883 | 0.882 | 0.85 | 0.507 | 0.435 | 0.506 | 0.505 | 0.309 | 0.996 | 0.936 | 1.03 | 0.978 | 0.87
NCI-H2170 | 0.676 | 0.56 | 0.632 | 0.581 | 0.269 | 0.619 | 0.645 | 0.595 | 0.422 | 0.536 | 0.373 | 0.27 | 0.32 | 0.32 | 0.209 | 1.13 | 0.815 | 0.892 | 0.766 | 0.474
NCI-H2347 | 0.296 | 0.277 | 0.26 | 0.258 | 0.262 | 0.623 | 0.581 | 0.593 | 0.521 | 0.63 | 0.588 | 0.568 | 0.901 | 0.806 | 0.31 | 0.729 | 0.717 | 0.923 | 0.739 | 0.633
NCI-H2405 | 0.226 | 0.216 | 0.22 | 0.207 | 0.208 | 0.905 | 0.844 | 1.04 | 0.789 | 0.867 | 0.487 | 0.353 | 0.493 |  | 0.364 | 0.859 | 0.738 | 0.877 | 0.79 | 0.648
NCI-H3122 | 1.01 | 0.828 | 0.866 | 0.851 | 0.517 | 0.655 | 0.645 | 0.648 | 0.537 | 0.578 | 0.725 | 0.511 | 0.603 | 0.612 | 0.595 | 1.1 | 0.97 | 1.04 | 0.941 | 0.957
PC-3 [JPC-3] | 0.959 | 0.99 | 1.04 | 0.943 | 0.999 |  | 1.22 | 1.09 | 0.762 | 1.19 | 0.8 | 0.714 | 0.81 | 0.746 | 0.612 | 0.844 | 0.802 | 0.85 | 0.823 | 0.655
PC-14 | 0.324 | 0.245 | 0.283 | 0.144 | 0.0724 | 0.289 | 0.28 | 0.239 | 0.192 | 0.31 | 0.847 | 0.605 | 0.526 | 0.499 | 0.322 | 0.471 | 0.305 | 0.374 | 0.696 | 0.43
RERF-LC-KJ | 0.988 | 0.668 | 0.76 | 0.591 | 0.508 | 0.948 | 0.956 | 0.869 | 0.724 | 0.637 | 0.533 | 0.493 | 0.561 | 0.44 | 0.466 | 1.03 | 0.844 | 0.914 | 0.739 | 0.652
